# US20230072421A1, “TARGETED RADIOPHARMACEUTICALS FOR THE DIAGNOSIS AND TREATMENT OF PROSTATE CANCER” (Bayer AS, priority 2019, published 2023)
# How the values were obtained:
# 22Rv1 cells = assay: Cell proliferation assay (CellTiter-Glo, 5-day exposure), 22Rv1; format: cell-based; conditions: 22Rv1, 1000 cells/well, Th-227 labelled at 375 kBq/nmol, mean of 1 to 6 experiments
# Experimental: (§1) Inhibition of cell proliferation of Thorium-227 labeled PMSA SMOL ligands was tested different prostate cancer cell lines, namely 22Rv1, VCaP, C4-2 (all from ATCC, Manassas, Va., USA) and LNCaP (DMSZ, Braunschweig). Cells were seeded using the following conditions in 384 well plates (Corning) in 30 μl of growth media at 4000 cells/well for VCaP cells and 1000 cells/well for 22Rv1, C4-2 and LNCaP cells.
# (§2) Cells were cultivated an incubator at 37° C. and 5% C02 over night. […] In sister plates cell viability at treatment start (d=0) was determined using CellTiter-Glo® assay (CTG, Promega, Madison, Wis., USA), by adding 30 μl per well CTG solution, incubation for 10 min and reading of Luminescence in a PheraStarFSX instrument (BMG Labtech). After a 5-day exposure in the presenced of test compounds, cell viability of treated or untreated control cells was determined again using CellTiter-Glo® assay (Promega, Madison, Wis., USA). […] The DRC software is a Biobook Spreadsheet that was developed by Bayer AG and Bayer Business Services on the IDBS E-Workbook Suite platform (IDBS: ID Business Solutions Ltd., Guildford, UK).
# C4-2 cells = assay: Cell proliferation assay (CellTiter-Glo, 5-day exposure), C4-2; format: cell-based; conditions: C4-2, 1000 cells/well, Th-227 labelled at 375 kBq/nmol, mean of 1 to 6 experiments
# Experimental: as §1, §2
# VCaP cells = assay: Cell proliferation assay (CellTiter-Glo, 5-day exposure), VCaP; format: cell-based; conditions: 4000 cells/well, Th-227 labelled at 375 kBq/nmol, mean of 1 to 6 experiments
# Experimental: as §1, §2
# [1] = Biodistribution study in LNCaP tumor-bearing mice (Th227 counted in organs); format: in vivo, SCID mice; conditions: 500 kBq/kg; for Th-227 in Blood / Th-227 in Femur bone / Th-227 in Kidneys / Th-227 in Liver / Th-227 in Spleen / Th-227 in Tumor / Th-227 in salivary glands: study b3004
# Experimental: (§3) SCID mice were randomly assigned to experimental groups, ten animals per group (efficacy) or n=3-5 per time point of biodistribution study. At the initiation of the study, a testosterone pellet was subcutaneously transplanted, the animals were shaved, tattooed and each cage was labeled with the cage number, study number and number of animals per cage.
# (§4) LNCaP human prostate cancer cells were cultured as described according to the supplier's protocols. Cells were harvested for transplantation in a subconfluent (70%) state. Animals were injected with 5×10^6 LNCaP cells suspended in 100% Matrigel subcutaneously into the flank of the mice.
# Biodistribution study: When tumors reached a predetermined size in mice of ˜50 mm^2 animals were randomized into groups (n=3 animals/time point) and the radioactive compound was once applied intravenously. The i.v. application volume was 100 μl/mice.
# At the predetermined time point, n=3 animals were sacrificed, the organs removed, weight and measured in a Germanium detector to count the Th227 in the sample.
# [2] = test system: LNCaP human prostate cancer cells; assay: LNCaP xenograft efficacy study (T/C tumor area); format: in vivo, SCID mice
# Experimental: as §3, §4
# Efficacy study: When tumors reached a predetermined size in mice of 35-50 mm^2 animals were randomized into treatment and control groups (n=10 animals/group) and treatment with the defined radioactive dose was started. The i.v. application volume was 100 μl/mice.
# Tumor response was assessed by determination of the tumor area (product of the longest diameter and its perpendicular) using a caliper. The animal body weight was monitored as a measure for treatment-related toxicity. Measurement of tumor area and body weight was performed two to three times weekly.
# Animals were sacrificed when showing signs of toxicity (>20% body weight loss) or when tumors reached a size of approximately 200 mm^2.
# Tumor growth inhibition is presented as T/C ratio (Treatment/Control) calculated with tumor areas when the vehicle control group had to be closed.
# [3] = comparison of % injected dose per gram tissue
structure (smiles),measurement,setting,value
Cc1cc(C(=O)NCCN(CCCN(CCNC(=O)c2cc(C)n(CC(=O)O)c(=O)c2[O-])CCNC(=O)c2cc(C)n(CC(=O)NCC3CCC(C(=O)NC(Cc4ccc5ccccc5c4)C(=O)NCCCCC(NC(=O)NC(CCC(=O)O)C(=O)O)C(=O)O)CC3)c(=O)c2[O-])CCNC(=O)c2cc(C)n(CC(=O)NCC3CCC(C(=O)NC(Cc4ccc5ccccc5c4)C(=O)NCCCCC(NC(=O)NC(CCC(=O)O)C(=O)O)C(=O)O)CC3)c(=O)c2[O-])c([O-])c(=O)n1CC(=O)O.[227Th+4] (stereo not shown) [1-C dimer-227Th],Proliferation assay on cancer cell lines by TTCs Default Pivot #3 IC50 [kBq/mL] 22Rv1 1000cells 375kBq/nmol (mean),22Rv1 cells,1.04 kBq/mL
same,Proliferation assay on cancer cell lines by TTCs Default Pivot #3 IC50 [kBq/mL] C4-2 1000cells 375kBq/nmol (mean),C4-2 cells,1.12 kBq/mL
same,Proliferation assay on cancer cell lines by TTCs Default Pivot #3 IC50 [kBq/mL] VCap 4000cells 375kBq/nmol (mean),VCaP cells,1.55 kBq/mL
same,Accumulation in the tumor (in words),[1]; [3],much higher accumulation in the tumor
same,"Background in blood, liver and spleen (in words)",[1]; [3],lower background compared to 1-F-227Th
same,Th-227 in Blood,[1]; 1 h,0.90 % ID Th-227/g organ
same,Th-227 in Femur bone,[1]; 1 h,1.39 % ID Th-227/g organ
same,Th-227 in Kidneys,[1]; 1 h,120.74 % ID Th-227/g organ
same,Th-227 in Liver,[1]; 1 h,1.49 % ID Th-227/g organ
same,Th-227 in Spleen,[1]; 1 h,2.33 % ID Th-227/g organ
same,Th-227 in Tumor,[1]; 1 h,19.99 % ID Th-227/g organ
same,Th-227 in salivary glands,[1]; 1 h,5.02 % ID Th-227/g organ
same,Th-227 in Blood,[1]; 24 h,0.07 % ID Th-227/g organ
same,Th-227 in Femur bone,[1]; 24 h,1.65 % ID Th-227/g organ
same,Th-227 in Kidneys,[1]; 24 h,102.45 % ID Th-227/g organ
same,Th-227 in Liver,[1]; 24 h,1.34 % ID Th-227/g organ
same,Th-227 in Spleen,[1]; 24 h,1.50 % ID Th-227/g organ
same,Th-227 in Tumor,[1]; 24 h,14.49 % ID Th-227/g organ
same,Th-227 in salivary glands,[1]; 24 h,1.39 % ID Th-227/g organ
same,Th-227 in Blood,[1]; 72 h,0.01 % ID Th-227/g organ
same,Th-227 in Femur bone,[1]; 72 h,1.25 % ID Th-227/g organ
same,Th-227 in Kidneys,[1]; 72 h,2.10 % ID Th-227/g organ
same,Th-227 in Liver,[1]; 72 h,1.02 % ID Th-227/g organ
same,Th-227 in Spleen,[1]; 72 h,0.76 % ID Th-227/g organ
same,Th-227 in Tumor,[1]; 72 h,8.99 % ID Th-227/g organ
same,Th-227 in salivary glands,[1]; 72 h,0.77 % ID Th-227/g organ
same,Th-227 in Blood,[1]; 168 h,0.01 % ID Th-227/g organ
same,Th-227 in Femur bone,[1]; 168 h,1.76 % ID Th-227/g organ
same,Th-227 in Kidneys,[1]; 168 h,17.42 % ID Th-227/g organ
same,Th-227 in Liver,[1]; 168 h,1.28 % ID Th-227/g organ
same,Th-227 in Spleen,[1]; 168 h,1.24 % ID Th-227/g organ
same,Th-227 in Tumor,[1]; 168 h,8.68 % ID Th-227/g organ
same,Th-227 in salivary glands,[1]; 168 h,1.17 % ID Th-227/g organ
same,Th-227 in Blood,[1]; 336 h,0.00 % ID Th-227/g organ
same,Th-227 in Femur bone,[1]; 336 h,1.55 % ID Th-227/g organ
same,Th-227 in Kidneys,[1]; 336 h,5.40 % ID Th-227/g organ
same,Th-227 in Liver,[1]; 336 h,1.06 % ID Th-227/g organ
same,Th-227 in Spleen,[1]; 336 h,0.73 % ID Th-227/g organ
same,Th-227 in Tumor,[1]; 336 h,2.85 % ID Th-227/g organ
same,Th-227 in salivary glands,[1]; 336 h,1.20 % ID Th-227/g organ
same,T/Carea,"[2]; Example II, day 33 after start of therapy, 375 kBq/kg weekly for 5 weeks",0.60
same,T/Carea,"[2]; Example II, day 33 after start of therapy, 750 kBq/kg weekly for 5 weeks",0.34
same,T/Carea,"[2]; Example IV, day 36 after start of therapy, once 1 MBq/kg",0.48
